Assay results taken from US20250092383A1, “COMPOUNDS AND METHODS FOR FBXO22-MEDIATED PROTEIN DEGRADATION” (Northwestern University, priority 2023, published 2025).

Assays:
FKBP12 and FBXO22 [1] = target: T1, FKBP12 and FBXO22 (Homo sapiens, UniProt P62942+Q8NEZ5); assay: Coimmunoprecipitation of HA-FBXO22 with FLAG-FKBP12 (ternary complex); format: cell-based; conditions: HEK293T cells, with MG132
T1 construct: expressed in transfected cells; host or cells: HEK293T
Description: (§1) FIGS. 4A-4C show 22-SLF induces the formation of a ternary complex involving 22-SLF, FKBP12 and FBXO22. […] The bar graph represents quantification of the immunoprecipitated HA-FBXO22 protein content compared to the HA-FBXO22 protein in whole cell lysates (WCL). Data are presented as the mean values (n=2 biological independent samples). […] Data are presented as the mean values (n=2 biological independent samples).
(§2) The formation of ternary complex by degraders with their target protein and E3 ligase drives the subsequent target degradation.

FKBP12 and FBXO22 [2] = target: T2, FKBP12 and FBXO22 (Homo sapiens, UniProt P62942+Q8NEZ5, C227A/C228A); assay: as above; format: cell-based; conditions: HEK293T cells, with MG132
T2 construct: expressed in transfected cells; host or cells: HEK293T
T2 sequence (P62942 2-108): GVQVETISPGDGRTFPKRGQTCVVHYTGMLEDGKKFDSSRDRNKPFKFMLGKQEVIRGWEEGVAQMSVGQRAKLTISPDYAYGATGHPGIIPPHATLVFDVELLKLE
T2 sequence (Q8NEZ5 whole entry C227A/C228A): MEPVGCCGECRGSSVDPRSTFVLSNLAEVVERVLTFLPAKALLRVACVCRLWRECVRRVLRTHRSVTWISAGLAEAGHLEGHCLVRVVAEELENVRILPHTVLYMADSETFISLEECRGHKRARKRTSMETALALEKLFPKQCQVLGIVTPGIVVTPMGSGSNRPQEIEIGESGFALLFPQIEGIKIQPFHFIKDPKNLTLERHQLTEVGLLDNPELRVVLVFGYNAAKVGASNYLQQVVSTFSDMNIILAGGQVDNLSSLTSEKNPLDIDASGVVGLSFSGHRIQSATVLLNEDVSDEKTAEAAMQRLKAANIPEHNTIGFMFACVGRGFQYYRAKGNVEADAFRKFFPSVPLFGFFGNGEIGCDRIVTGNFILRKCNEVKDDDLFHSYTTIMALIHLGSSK
T2 sequence (P63208 whole entry partner): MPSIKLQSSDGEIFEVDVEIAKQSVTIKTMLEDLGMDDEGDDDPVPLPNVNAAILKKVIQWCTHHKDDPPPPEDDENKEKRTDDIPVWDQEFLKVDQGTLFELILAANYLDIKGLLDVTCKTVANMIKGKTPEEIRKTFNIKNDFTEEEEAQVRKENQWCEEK
Description: as §1, §2

FKBP12 and FBXO22 [3] = assay: as above; format: cell-based, human; conditions: HEK293T cells, with MG132
Description: as §1, §2

FKBP12-EGFP = target: T3, FKBP12-EGFP (Homo sapiens, UniProt P62942); assay: E3 ligase focused CRISPR-Cas9 transcriptional activation screen for FKBP12-EGFP degradation; format: cell-based; conditions: 2 μM 22-SLF, 24 hours, HEK293T CRISPR-Cas9 transcriptional activation cells
T3 construct: expressed in transfected cells
T3 sequence (P62942 whole entry): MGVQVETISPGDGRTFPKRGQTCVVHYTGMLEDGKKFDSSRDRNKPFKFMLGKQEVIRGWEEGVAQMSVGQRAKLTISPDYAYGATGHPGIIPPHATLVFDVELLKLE
Experimental: FIGS. 1A-1E show an E3 ligase focused CRISPR-Cas9 transcriptional activation screen identifies FBXO22 that supports 22-SLF-induced reduction in FKBP12-EGFP expression levels. FIG. 1A is a schematic representation of the steps in the CRISPR-Cas9 transcriptional activation screen. […] FIG. 1C is a volcano plot showing the E3 ligase focused CRISPR-Cas9 transcriptional activation screen for FKBP12-EGFP degradation after treatment of 2 μM 22-SLF in HEK293T CRISPR-Cas9 transcriptional activation cells for 24 hours. […] The statistical significance was evaluated through unpaired two-tailed Student's t-tests, comparing cells transduced with FBXO22 sgRNA to control sgRNA. Statistical significance denoted ****P<0.0001. […] The statistical significance was evaluated through unpaired two-tailed Student's t-tests, comparing cells treated with 22-SLF to DMSO. Statistical significance denoted as ***P<0.001 and ns: not significant.
With the CRISPR-Cas9 transcriptional activation cells, a CRISPR-Cas9 transcriptional activation pool screen was developed to identify E3 ligases that support FKBP12 degradation by FKBP12-directed heterobifunctional compounds. […] Subsequently, cells from the bottom 15% of the GFP population were isolated using fluorescence-activated cell sorting (FIG. 1a and FIG. 7). […]

[4] = target: T4, FKBP12 interactome (SKP1-CUL1-RBX1 E3 complex) (Homo sapiens, UniProt P62942+Q8NEZ5); assay: FKBP12-directed enrichment proteomic analysis; format: cell-based; conditions: 22-SLF (2 μM) and MG132 (5 μM)
T4 construct: expressed in transfected cells; host or cells: HEK293T (FLAG-FKBP12 and HA-FBXO22 expressed; SKP1, CUL1 and RBX1 are the cells' own)
T4 sequence (P62942 2-108): as the sequence (P62942 2-108) above
T4 sequence (Q8NEZ5 whole entry): as the sequence (Q8NEZ5 whole entry C227A/C228A) above, with A227C, A228C counted along it
T4 sequence (P63208 whole entry partner): as the sequence (P63208 whole entry partner) above
Description: as §1
(§3) To comprehensively assess the impact of 22-SLF on the FKBP12 interactome landscape, an enrichment proteomic approach was employed to identify proteins co-immunoprecipitating with FLAG-FKBP12 from HEK293T cells treated with 22-SLF. […] Furthermore, another enrichment proteomic study was conducted comparing FKBP12 interactome landscape in HEK293T cells expressing FBXO22 wildtype and C227AC228A double mutant. […] Collectively, these findings indicate that 22-SLF effectively drives the formation of a ternary complex involving 22-SLF, FBXO22 and FKBP12 by engaging C227/228 in FBXO22, thereby facilitating the subsequent degradation of FKBP12.

[5] = target: T5, FKBP12 interactome (SKP1-CUL1-RBX1 E3 complex) (Homo sapiens, UniProt P62942+Q8NEZ5, C227A/C228A); assay: FKBP12-directed enrichment proteomic analysis; format: cell-based; conditions: 22-SLF (2 μM) and MG132 (5 μM)
T5 construct: expressed in transfected cells; host or cells: HEK293T (FLAG-FKBP12 and HA-FBXO22 expressed; SKP1, CUL1 and RBX1 are the cells' own)
T5 sequence (P62942 2-108): as the sequence (P62942 2-108) above
T5 sequence (Q8NEZ5 whole entry C227A/C228A): as the sequence (Q8NEZ5 whole entry C227A/C228A) above
T5 sequence (P63208 whole entry partner): as the sequence (P63208 whole entry partner) above
Description: as §1, §3

CUTA = target: T6, CUTA (Homo sapiens, UniProt O60888); assay: MS-based global proteomic analysis in A549 parental and FBXO22 knockout cells (CUTA); format: cell-based; conditions: 2 μM, 24 hours
T6 construct: endogenous in cells; host or cells: A549 parental and FBXO22 knockout
T6 sequence (O60888 33-179): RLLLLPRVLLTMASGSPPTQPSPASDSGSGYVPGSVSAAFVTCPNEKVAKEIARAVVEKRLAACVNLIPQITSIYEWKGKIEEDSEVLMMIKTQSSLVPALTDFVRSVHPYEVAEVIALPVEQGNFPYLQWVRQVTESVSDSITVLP
Description: As an F-box protein, FBXO22 is a pivotal player in the context of tumor progression. FBXO22 has many oncogenic functions, including propelling the ubiquitination and subsequent degradation of a diverse spectrum of substrates, such as histone lysine demethylase 4 subfamily KDM4A/B, methylated p53, p21, PTEN, KLF4, and LKB1. […] To establish the role of endogenous FBXO22 in facilitating 22-SLF-induced FKBP12 degradation, FBXO22 knockout was used in a panel of cancer cell lines, including A549 (lung cancer), MDA-MB-231 (breast cancer), and PC3 (prostate cancer). The efficacy of FBXO22 knockout was verified through both genomic PCR and global proteomic analysis (FIG. 8b,c). […] Furthermore, mass spectrometry (MS)-based global proteomic analysis was conducted on A549 parental and FBXO22 knockout cells, following the treatment with 2 μM 22-SLF for 24 hours. […] To further substantiate the engagement of FBXO22 by the electrophilic portion of 22-SLF, a biotin-conjugated probe known as 22-biotin (FIG. 2f) was synthesized. This probe was then immobilized onto streptavidin-coated beads, which were subsequently subjected to interaction with lysates from HEK293T cells expressing HA-tagged FBXO22.

T1 sequence (P62942 2-108): as the sequence (P62942 2-108) above
T1 sequence (Q8NEZ5 whole entry): as the sequence (Q8NEZ5 whole entry C227A/C228A) above, with A227C, A228C counted along it
T1 sequence (P63208 whole entry partner): as the sequence (P63208 whole entry partner) above

For CCC(C)(C)C(=O)C(=O)N1CCCC[C@H]1C(=O)O[C@H](CCc1ccc(OC)c(OC)c1)c1cccc(OCC(=O)NCCCOCCOCCOCCCN(C(=O)CCl)C(C(=O)NCc2ccccc2)c2nc3ccccc3s2)c1 (some centres unmarked) [22-SLF], the “Ternary complex formation, FBXO22 wild type” value (FKBP12 and FBXO22 [1]) was “HA-FBXO22 co-immunoprecipitated with FLAG-FKBP12”, the “Ternary complex assembly, FBXO22 C227AC228A double mutant” value (FKBP12 and FBXO22 [2]) was “nearly completely abolished” and the “Ternary complex assembly, FBXO22 C227A or C228A single mutant” value (FKBP12 and FBXO22 [3]) was “partially hindered”. The “Enrichment of sgRNAs in sorted low-GFP cells” value (FKBP12-EGFP) was “substantial enrichment of two distinct sgRNAs targeting the same E3 ligase, FBXO22”, the “FBXO22 complex enrichment, FBXO22 wildtype-expressing cells” value [4] was “enrichment of the FBXO22 complex” and the “Proteins co-immunoprecipitating with FLAG-FKBP12” value ([4]; HEK293T cells) was “FBXO22 itself, SKP1, CUL1, and NEDD8, as proteins recruited by 22-SLF”. The “FBXO22 complex enrichment, FBXO22 C227AC228A-expressing cells” value [5] was “enrichment was absent” and the “CUTA protein reduction in global proteomics” value (CUTA) was “observed to undergo reduction upon 22-SLF treatment in A549 parental cells, but not in the FBXO22 knockout setting”.
